Laboratory results from patent publication US9273057B2 (Bristol-Myers Squibb Company, priority 2012, dated 2016).

molecular target: CK2A1 (CK2α/β) (Homo sapiens, UniProt P68400); test: CK2 kinase assay, CK2A1 (CK2α/β); format: biochemical; settings: Table A; read-out: CK2A1 (CK2α/β) (IC50)
Sequence (P68400 whole entry, species assumed): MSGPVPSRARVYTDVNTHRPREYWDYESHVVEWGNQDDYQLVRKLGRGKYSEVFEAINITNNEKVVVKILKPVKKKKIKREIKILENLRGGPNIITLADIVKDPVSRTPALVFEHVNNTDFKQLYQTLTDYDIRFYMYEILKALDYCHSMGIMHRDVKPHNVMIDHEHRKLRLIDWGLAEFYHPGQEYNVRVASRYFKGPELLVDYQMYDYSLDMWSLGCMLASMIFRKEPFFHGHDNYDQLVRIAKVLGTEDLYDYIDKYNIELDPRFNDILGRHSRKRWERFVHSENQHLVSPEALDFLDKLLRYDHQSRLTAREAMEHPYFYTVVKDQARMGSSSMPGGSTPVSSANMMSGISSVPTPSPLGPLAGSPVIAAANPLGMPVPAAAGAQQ
Sequence (P67870 whole entry partner, species assumed): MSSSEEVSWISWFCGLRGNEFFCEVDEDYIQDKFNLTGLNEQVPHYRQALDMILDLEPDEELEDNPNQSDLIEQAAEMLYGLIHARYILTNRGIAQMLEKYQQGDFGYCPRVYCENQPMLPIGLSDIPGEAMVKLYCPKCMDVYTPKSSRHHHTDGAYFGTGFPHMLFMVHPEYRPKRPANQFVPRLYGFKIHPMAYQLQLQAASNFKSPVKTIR

Row | IC50 | SMILES
1 | 1.92 nM | CN1CCN(C(CO)CCc2cc(C#N)cc(Nc3nc(NC4CC4)c4ncc(C#N)n4n3)c2Cl)CC1 (stereo not shown) [Example 723, 2-({2-chloro-5-cyano-3-[4-hydroxy-3-(4-methylpiperazin-1-yl)butyl]phenyl}amino)-4-(cyclopropylamino)imidazo [2,1-f][1,2,4]triazine-7-carbonitrile]
2 | 1.51 nM | CC(CCc1cc(Cl)c(Nc2nc(NC3CC3)c3ncc(C#N)n3n2)cc1C#N)N1CC(O)C1 (stereo not shown) [Example 724, 2-({2-chloro-5-cyano-4-[3-(3-hydroxyazetidin-1-yl)butyl]phenyl}amino)-4-(cyclopropylamino)imidazo [2,1-f][1,2,4]triazine-7-carbonitrile]
3 | 2.34 nM | N#Cc1cc(Nc2nc(NC3CC3)c3ncc(C#N)n3n2)c(Cl)c([C@H]2CCC[C@@H](N3CC(F)C3)C2)c1 [Example 726, 2-({2-chloro-5-cyano-3-[(1S,3R)-3-(3-fluoroazetidin-1-yl)cyclohexyl]phenyl}amino)-4-(cyclopropylamino)imidazo [2,1-f][1,2,4]triazine-7-carbonitrile]
4 | 1.23 nM | CN[C@@H]1CCC[C@H](c2cc(C#N)cc(Nc3nc(NC4CC4)c4ncc(C#N)n4n3)c2Cl)C1 [Example 727, 2-({2-chloro-5-cyano-3-[(1S,3R)-3-(methylamino)cyclohexyl]phenyl}amino)-4-(cyclopropylamino)imidazo [2,1-f][1,2,4]triazine-7-carbonitrile]
5 | 1.38 nM | N#Cc1cc(Nc2nc(NC3CC3)c3ncc(C#N)n3n2)c(Cl)c([C@H]2CCC[C@H](NC[C@H]3CCCO3)C2)c1 [Example 728, 2-({2-chloro-5-cyano-3-[(1S,3S)-3-{[(2R)-oxolan-2-ylmethyl]amino}cyclohexyl]phenyl}amino)-4-(cyclopropylamino)imidazo [2,1-f][1,2,4]triazine-7-carbonitrile]
6 | 25.4 nM | CC(CC(C)c1cc(Cl)c(Nc2nc(NC3CC3)c3ncc(C#N)n3n2)cc1C#N)NCC(F)(F)F (stereo not shown) [Example 732, 2-((2-chloro-5-cyano-4-(4-((2,2,2-trifluoroethyl)amino)pentan-2-yl)phenyl)amino)-4-(cyclopropylamino)imidazo[2,1-f][1,2,4]triazine-7-carbonitrile]
7 | 2.24 nM | CNC(C)CC(C)c1cc(Cl)c(Nc2nc(NC3CC3)c3ncc(C#N)n3n2)cc1C#N (stereo not shown) [Example 733, 2-({2-chloro-5-cyano-4-[4-(methylamino)pentan-2-yl]phenyl}amino)-4-(cyclopropylamino)imidazo [2,1-f][1,2,4]triazine-7-carbonitrile]
8 | 4.86 nM | CC(CC(C)N1CC(C)(O)C1)c1cc(Cl)c(Nc2nc(NC3CC3)c3ncc(C#N)n3n2)cc1C#N (stereo not shown) [Example 736, 2-({2-chloro-5-cyano-4-[4-(3-hydroxy-3-methylazetidin-1-yl)pentan-2-yl]phenyl}amino)-4-(cyclopropylamino)imidazo [2,1-f][1,2,4]triazine-7-carbonitrile]
9 | 0.38 nM | N#Cc1cc(Nc2nc(NC3CC3)c3ncc(C#N)n3n2)c(Cl)c(C(F)(F)CO)c1 [Example 737, 2-((2-chloro-5-cyano-3-(1,1-difluoro-2-hydroxyethyl)phenyl)amino)-4-(cyclopropylamino)imidazo[2,1-f][1,2,4]triazine-7-carbonitrile]
10 | 0.27 nM | CN1CCN(CCC(F)(F)c2cc(C#N)cc(Nc3nc(NC4CC4)c4ncc(C#N)n4n3)c2Cl)CC1 [Example 738, 2-((2-chloro-5-cyano-3-(1,1-difluoro-3-(4-methylpiperazin-1-yl)propyl)phenyl)amino)-4-(cyclopropylamino)imidazo[2,1-f][1,2,4]triazine-7-carbonitrile]
11 | 1.74 nM | CCNc1nc(Nc2cc(C#N)cc(N3CC[C@@H](NC(=O)OC)C(=O)C3)c2Cl)nn2c(C#N)cnc12 [Example 740, (R)-methyl (1-(2-chloro-5-cyano-3-((7-cyano-4-(ethylamino)imidazo[2,1-f][1,2,4]triazin-2-yl)amino)phenyl)-3-oxopiperidin-4-yl)carbamate]
12 | 1.36 nM | CCNc1nc(Nc2cc(C#N)cc(N3CC[C@@H](NC(=O)OC)[C@H](NC4COC4)C3)c2Cl)nn2c(C#N)cnc12 [Example 746, methyl ((3R,4R)-1-(2-chloro-5-cyano-3-((7-cyano-4-(ethylamino)imidazo[2,1-f][1,2,4]triazin-2-yl)amino)phenyl)-3-(oxetan-3-ylamino)piperidin-4-yl)carbamate]
13 | 1.62 nM | CCNc1nc(Nc2cc(C#N)cc(N3CC[C@@H](NC(=O)OC)[C@@H](NC4COC4)C3)c2Cl)nn2c(C#N)cnc12 [Example 747, methyl ((3S,4R)-1-(2-chloro-5-cyano-3-((7-cyano-4-(ethylamino)imidazo[2,1-f][1,2,4]triazin-2-yl)amino)phenyl)-3-(oxetan-3-ylamino)piperidin-4-yl)carbamate]
14 | 1.4 nM | COC(=O)N[C@H]1CCN(c2cc(C#N)cc(Nc3nc(NC4CC4)c4ncc(C#N)n4n3)c2Cl)C[C@@H]1NCC(F)F [Example 748, methyl ((3S,4S)-1-(2-chloro-5-cyano-3-((7-cyano-4-(cyclopropylamino)imidazo[2,1-f][1,2,4]triazin-2-yl)amino)phenyl)-3-((2,2-difluoroethyl)amino)piperidin-4-yl)carbamate]
15 | 0.7 nM | COC(=O)N[C@H]1CCN(c2cc(C#N)cc(Nc3nc(NC4CC4)c4ncc(C#N)n4n3)c2Cl)C[C@H]1NCC(F)F [Example 749, methyl ((3R,4S)-1-(2-chloro-5-cyano-3-((7-cyano-4-(cyclopropylamino)imidazo[2,1-f][1,2,4]triazin-2-yl)amino)phenyl)-3-((2,2-difluoroethyl)amino)piperidin-4-yl)carbamate]
16 | 0.9 nM | CCNc1nc(Nc2cc(C#N)cc(N3CC[C@@H](NC(=O)OC)[C@H](N(C)C4COC4)C3)c2Cl)nn2c(C#N)cnc12 [Example 750, methyl ((3R,4R)-1-(2-chloro-5-cyano-3-((7-cyano-4-(ethylamino)imidazo[2,1-f][1,2,4]triazin-2-yl)amino)phenyl)-3-(methyl(oxetan-3-yl)amino)piperidin-4-yl)carbamate]
17 | 1.3 nM | CCNc1nc(Nc2cc(C#N)cc(N3CC[C@@H](NC(=O)OC)[C@@H](N(C)C4COC4)C3)c2Cl)nn2c(C#N)cnc12 [Example 751, methyl ((3S,4R)-1-(2-chloro-5-cyano-3-((7-cyano-4-(ethylamino)imidazo[2,1-f][1,2,4]triazin-2-yl)amino)phenyl)-3-(methyl(oxetan-3-yl)amino)piperidin-4-yl)carbamate]
18 | 2.46 nM | COC(=O)N[C@H]1CCN(c2cc(C#N)cc(Nc3nc(NC4CC4)c4ncc(C#N)n4n3)c2Cl)CC1N[C@@H](C)C(N)=O (stereo partly drawn) [Example 753, methyl N-[(4S)-3-{[(1S)-1-carbamoylethyl]amino}-1-(2-chloro-5-cyano-3-{[7-cyano-4-(cyclopropylamino)imidazo [2,1-f][1,2,4]triazin-2-yl]amino}phenyl)piperidin-4-yl]carbamate]
19 | 2.93 nM | COC(=O)N[C@H]1CCN(c2cc(C#N)cc(Nc3nc(NC4CC4)c4ncc(C#N)n4n3)c2Cl)C[C@H]1NC1(C)COC1 [Example 754, methyl N-[(3R,4S)-1-(2-chloro-5-cyano-3-{[7-cyano-4-(cyclopropylamino)imidazo [2,1-f][1,2,4]triazin-2-yl]amino}phenyl)-3-[(3-methyloxetan-3-yl)amino]piperidin-4-yl]carbamate]
20 | 4.43 nM | COC(=O)N[C@H]1CCN(c2cc(C#N)cc(Nc3nc(NC4CC4)c4ncc(C#N)n4n3)c2Cl)C[C@H]1NC(C)C [Example 756, methyl N-[(3R,4S)-1-(2-chloro-5-cyano-3-{[7-cyano-4-(cyclopropylamino)imidazo [2,1-f][1,2,4]triazin-2-yl]amino}phenyl)-3-[(propan-2-yl)amino]piperidin-4-yl]carbamate]
21 | 1.4 nM | CCNc1nc(Nc2cc(C#N)cc(N3CC[C@@H](NC(=O)OC)[C@H](N[C@H](C)C(N)=O)C3)c2Cl)nn2c(C#N)cnc12 [Example 758, methl N-[(3R,4R)-3-{[(1S)-1-carbamoylethyl]amino}-1-(2-chloro-5-cyano-3-{[7-cyano-4-(ethylamino)imidazo[2,1-f][1,2,4]triazin-2-yl]amino}phenyl)piperidin-4-yl]carbamate]
22 | 10 nM | CCNc1nc(Nc2cc(C#N)cc(N3CC[C@@H](NC(=O)OC)[C@@H](NCC(O)C(F)(F)F)C3)c2Cl)nn2c(C#N)cnc12 (stereo partly drawn) [Example 761, methyl N-[(3S,4R)-1-(2-chloro-5-cyano-3-{[7-cyano-4-(ethylamino)imidazo[2,1-f][1,2,4]triazin-2-yl]amino}phenyl)-3-[(3,3,3-trifluoro-2-hydroxypropyl)amino]piperidin-4-yl]carbamate]
23 | 1.35 nM | COC(=O)N[C@H]1CCN(c2cc(C#N)cc(Nc3nc(NC4CC4)c4ncc(C#N)n4n3)c2Cl)CC1N(C)C1COC1 (stereo partly drawn) [Example 763, methyl N-[(4S)-1-(2-chloro-5-cyano-3-{[7-cyano-4-(cyclopropylamino)imidazo [2,1-f][1,2,4]triazin-2-yl]amino}phenyl)-3-[methyl(oxetan-3-yl)amino]piperidin-4-yl]carbamate]
24 | 23.2 nM | COC(=O)N[C@H]1CCN(c2cc(C#N)cc(Nc3nc(NC4CC4)c4ncc(C#N)n4n3)c2Cl)C[C@@H]1N(C)CC(C)(C)O [Example 765, methyl N-[(3S,4S)-1-(2-chloro-5-cyano-3-{[7-cyano-4-(cyclopropylamino)imidazo [2,1-f][1,2,4]triazin-2-yl]amino}phenyl)-3-[(2-hydroxy-2-methylpropyl)(methyl)amino]piperidin-4-yl] carbamate]
25 | 6 nM | COC(=O)N[C@H]1CCN(c2cc(C#N)cc(Nc3nc(NC4CC4)c4ncc(C#N)n4n3)c2Cl)C[C@H]1N(C)CC#N [Example 766, methyl N-[(3R,4S)-1-(2-chloro-5-cyano-3-{[7-cyano-4-(cyclopropylamino)imidazo [2,1-f][1,2,4]triazin-2-yl]amino}phenyl)-3-[(cyanomethyl)(methyl)amino]piperidin-4-yl]carbamate]
